In US9108921B2, “Therapeutic compounds and compositions” (AGIOS PHARMACEUTICALS, INC, priority 2014, dated 2015) one finds AC50 data, which are given here for 18 molecules.

A value given as a limit tells only on which side of the number the result lay.

What all share (type): biochemical
In one assay the target is PKR WT (Homo sapiens, UniProt P30613). Nature of the assay: PKR WT enzymatic AC50 assay. To be noted: wild type PKR. Summed up:
(§1)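 PK-LDH coupled assay, RT. Enzyme + cpd + PEP/NADH/LDH, 60 min pre-incubation, no ADP. ADP 0.22-1.65 mM to initiate; A340 kinetic read. Cpd 11 pts, 3-fold, 100 μM top.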

A further assay has as its target PKR R510Q (Homo sapiens, UniProt P30613, R510Q). The experiment in a line: PKR Mutant Assay, AC50 against PKR R510Q. As to conditions: mutant PKR R510Q enzyme. In a few lines:
as §1

A further assay deals with PKR R532W (Homo sapiens, UniProt P30613, R532W). Nature of the assay: PKR Mutant Assay, AC50 against PKR R532W. To be noted: mutant PKR R532W enzyme. In a few lines: as §1
PKR R532W, sequence (P30613 whole entry R532W): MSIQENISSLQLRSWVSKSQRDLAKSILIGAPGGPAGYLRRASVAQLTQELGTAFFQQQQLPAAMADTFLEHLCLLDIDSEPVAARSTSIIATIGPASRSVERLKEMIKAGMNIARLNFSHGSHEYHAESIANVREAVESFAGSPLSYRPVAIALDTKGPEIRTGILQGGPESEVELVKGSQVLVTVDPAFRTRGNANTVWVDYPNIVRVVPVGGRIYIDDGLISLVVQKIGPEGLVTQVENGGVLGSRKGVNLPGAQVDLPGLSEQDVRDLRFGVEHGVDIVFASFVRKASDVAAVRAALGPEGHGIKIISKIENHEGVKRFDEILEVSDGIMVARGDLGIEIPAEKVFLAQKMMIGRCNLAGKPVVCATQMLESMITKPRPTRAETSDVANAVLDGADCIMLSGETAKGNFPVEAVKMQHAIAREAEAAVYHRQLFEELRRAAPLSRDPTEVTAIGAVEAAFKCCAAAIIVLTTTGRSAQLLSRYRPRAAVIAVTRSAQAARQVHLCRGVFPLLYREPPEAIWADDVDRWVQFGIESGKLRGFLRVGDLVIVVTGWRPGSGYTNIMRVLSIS

PKR WT, sequence (P30613 whole entry): as the sequence (P30613 whole entry R532W) above, with W532R counted along it
PKR R510Q, sequence (P30613 whole entry R510Q): as the sequence (P30613 whole entry R532W) above, with R510Q, W532R counted along it

With `CC(C)CC1(O)CCN(C(=O)c2ccc(NS(=O)(=O)c3ccc(O)c4nccnc34)cc2)CC1` [Compound 289], the AC50 at PKR WT lay in the range of 0.101 to 1 µM; on PKR R510Q, 1.01 to 10 µM; at PKR R532W, 0.101 to 1 µM.
On to `O=C(c1cc(F)c(NS(=O)(=O)c2cccc3cccnc23)cc1F)N1CCC(O)(c2ccccc2)CC1` [Compound 290], for which the half-maximal activity concentration (AC50) at PKR WT lay in the range of 0.101 to 1 µM; at PKR R510Q, 1.01 to 10 µM; on PKR R532W, 0.101 to 1 µM.
Regarding `CC(C)(O)CCC1(O)CCN(C(=O)c2ccc(NS(=O)(=O)c3cccc4cccnc34)cc2)CC1` [Compound 292], the values for the AC50 on PKR WT, on PKR R510Q and at PKR R532W were 0.101 to 1 µM, 1.01 to 10 µM and 1.01 to 10 µM, respectively.
For the molecule `Cc1nc2c(S(=O)(=O)Nc3ccc(C(=O)N4CCC(O)(c5ccccc5Cl)CC4)cc3)cccc2s1` [Compound 293], the AC50 on PKR WT lay in the range of 0.101 to 1 µM; on PKR R510Q, 1.01 to 10 µM; on PKR R532W, 0.101 to 1 µM.
For `O=C(c1ccc(NS(=O)(=O)c2cccc3nsnc23)cc1)N1CCC(O)(c2ccccc2)CC1` [Compound 294], the half-maximal activity concentration (AC50) on PKR WT was 1.01 to 10 µM; at PKR R510Q it was > 10 µM; on PKR R532W it was 1.01 to 10 µM.
On to `CC1(O)CCN(C(=O)c2ccc(NS(=O)(=O)c3cccc4cccnc34)cc2)CC1` [Compound 296], for which the AC50 on PKR WT was 1.01 to 10 µM; on PKR R510Q, > 10 µM; at PKR R532W, 1.01 to 10 µM.
Consider `O=C(c1ccc(NS(=O)(=O)c2ccccc2C(F)(F)F)cc1)N1CCC(O)(Cc2ccccc2)CC1` [Compound 297], for which the half-maximal activity concentration (AC50) at PKR WT, on PKR R510Q and at PKR R532W was 1.01 to 10 µM each time.
Regarding `O=C(c1ccc(NS(=O)(=O)c2cccc3cccnc23)cn1)N1CCC(O)(c2ccccc2)CC1` [Compound 298], the AC50 at PKR WT was 1.01 to 10 µM; at PKR R510Q, > 10 µM; on PKR R532W it was 1.01 to 10 µM.
As for `O=C(c1ccc(NS(=O)(=O)c2cccc3ncccc23)cc1)N1CCC(O)(c2ccccc2)CC1` [Compound 300], the half-maximal activity concentration (AC50) was 1.01 to 10 µM on PKR WT, > 10 µM on PKR R510Q and 1.01 to 10 µM at PKR R532W.
`O=C(c1ccc(NS(=O)(=O)c2cccc3cccnc23)c(F)c1F)N1CCC(O)(c2ccccc2)CC1` [Compound 302]: the AC50 was 1.01 to 10 µM at PKR WT, > 10 µM on PKR R510Q and 1.01 to 10 µM at PKR R532W.
With `O=C(c1ccc(NS(=O)(=O)c2c(F)ccc3ncsc23)cc1)N1CCC(O)(c2ccccc2Cl)CC1` [Compound 303], the results for the concentration at half-maximal activity (AC50) at PKR WT, at PKR R510Q and on PKR R532W were 1.01 to 10 µM, > 10 µM and 1.01 to 10 µM, respectively.
As for `COc1nc(C(=O)N2CCC(O)(c3ccccc3)CC2)ccc1NS(=O)(=O)c1cccc2cccnc12` [Compound 304], the AC50 at PKR WT is 1.01 to 10 µM; on PKR R510Q it was > 10 µM; at PKR R532W it was 1.01 to 10 µM.
Take `O=C(c1ccc(NS(=O)(=O)c2cccc3cccnc23)nc1)N1CCC(O)(c2ccccc2)CC1` [Compound 306]: the half-maximal activity concentration (AC50) is 1.01 to 10 µM on PKR WT, > 10 µM on PKR R510Q and 1.01 to 10 µM at PKR R532W.
As to `O=C(c1ccc(NS(=O)(=O)c2cccc(OC(F)(F)F)c2)cc1)N1CCC(O)(Cc2ccccc2)CC1` [Compound 307], the AC50 was 1.01 to 10 µM at PKR WT, > 10 µM on PKR R510Q and 1.01 to 10 µM on PKR R532W.
For `O=C(c1ccc(NS(=O)(=O)c2cccc3c2OC(F)(F)O3)cc1)N1CCC(O)(c2ccccc2Cl)CC1` [Compound 308], the concentration at half-maximal activity (AC50) on PKR WT was 1.01 to 10 µM; at PKR R510Q it was > 10 µM; on PKR R532W, 1.01 to 10 µM.
Take `CC(C)CC1(O)CCN(C(=O)c2ccc(NS(=O)(=O)c3c(F)ccc4ncsc34)cc2)CC1` [Compound 309]: the figures for the AC50 on PKR WT, on PKR R510Q and on PKR R532W were 1.01 to 10 µM, > 10 µM and 1.01 to 10 µM, respectively.
On to `O=C(c1ccc(N[S+]([O-])c2cccc3cccnc23)cc1)N1CCC(O)(c2ccccc2Cl)CC1` (stereo not drawn) [Compound 311], for which the AC50 was 1.01 to 10 µM on PKR WT, > 10 µM at PKR R510Q and 1.01 to 10 µM at PKR R532W.
For `CC(C)CC1(O)CCN(C(=O)c2ccc(NS(=O)(=O)c3cccn4ccnc34)cc2)CC1` [Compound 312], the AC50 at PKR WT is 1.01 to 10 µM; at PKR R510Q it was > 10 µM; at PKR R532W it was 1.01 to 10 µM.

The term AC50 denotes the concentration giving half of the maximal activity seen. The low end stands for activity at low concentration, the high end for activity only at high concentration.
